Earlier results on one molecule are cited in PMC10831786 (Virus Research, 2024).

Where a name gives a salt, the structure may show the parent alone.

This data set has as its system Entamoeba histolytica. To be noted: in vitro; ref Burchard and Mirelman, 1988; cited from earlier work.

As for `CC[C@H]1CN2CCc3cc(OC)c(OC)cc3[C@@H]2C[C@@H]1C[C@H]1NCCc2cc(OC)c(OC)cc21` [Emetine, 2H-Benzoaquinolizine, 3-ethyl-1,3,4,6,7,11b-hexahydro-9,10-dimethoxy-2-(1R)-1,2,3,4-tetrahydro-6,7-dimethoxy-1-isoquinolinylmethyl-, dihydrochloride, (2S,3R,11bS)-, reference compound], the “Concentration required to inhibit growth of Entamoeba histolytica” value was 12 to 25 µM.
